The test system of experiment [1] is T-47D human mammary cancer cells. Nature of the experiment: MTT test, proliferation of T-47D. Type of experiment: cell-based. To be noted: for activity at 100 µM / activity at 1 µM / activity at 0.01 µM: Homo sapiens, T47D, 72 h, read-out: level of proliferation; for effect on cellular increase, T-47D (in words): MTT test. A digest of the protocol: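 Cells grown at 37° C in MEM/5% FCS were plated for 24 h, then treated at 10^-8, 10^-6 or 10^-4 M. Each condition was run in 6 duplicates.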
For orientation: Formazan colour is commonly taken as a measure of viable cells.

A further experiment relates to RARγ-ERcassette. Kind of experiment: Transactivation, chimerical receptor RARγ-ERcassette (HeLa). In kind it is cell-based. To be noted: TTNPB 10^-8 M = 100. The text has this:
(§1) The HeLa cells are co-transfected by a plasmid which codes for a retinoic receptor in which the C domain of bonding to the DNA is substituted by that of the receptor to RE oestrogens, and a plasmid which places the expression of the luciferase under the control of an ERE (Element of Response to Oestrogens). The expressed chimerical receptors are designated as RARα-ERcassette, RARβ-ERcassette, RARγ-ERcassette and RXRα-ERcassette. The A, B, D, E and F regions of the natural receptor are preserved as well as the transcriptional co-operation between the activation domains AF-1 and AF-2. These transitory transfection experiments follow the method of co-precipitation to calcium phosphate. The HeLa cells are co-transfected by […] of plasmid coding for the chimerical receptor, […] of reporter plasmid and […] of expression vector CMV-β-galactosidase used as an internal control of transfection. 24 hours after the transfection, the cells are incubated for 16 hours with the different effectors.
(§2) In this type of chimerical receptor, the C domain of bonding to the DNA of RAR is substituted by that of the receptor to the RE oestrogens. The protein obtained is close to the natural RAR receptor and preserves the transcriptional properties of the AF-1 and AF-2 domains. It modulates the transcription by means of an ERE. This RAR-ERcassette model allows one to observe a transcriptional response to a more physiological ligand.

For a further experiment, the system named is RARα-ERcassette. Nature of the experiment: Transactivation, chimerical receptor RARα-ERcassette (HeLa). Type of experiment: cell-based. The conditions noted are these: TTNPB 10^-8 M = 100.
Description: as §1, §2

For experiment [2], the system named is A549 human pulmonary cancer cells. Nature of the experiment: MTT test, proliferation of A549. Type of experiment: cell-based. The conditions noted are these: for activity at 0.01 µM / activity at 1 µM / activity at 100 µM: Homo sapiens, read-out: level of proliferation; for effect on cellular increase, A549 (in words): MTT test.
Experiment [3] concerns response element RARE of RARβ gene, endogenic retinoic receptors, HRLN lineage. Kind of experiment: HRLN transactivation (RARE-luciferase, stably transfected HeLa). In kind it is cell-based. The conditions noted are these: for EC50 / Emax: Homo sapiens, HeLa; for EC50: concentrations from 1 nM to 1 μM; for Emax: read-out: HRLN transactivation, E max. As for the experimental part:
MCF-7 cells and HeLa are cultivated in DMFM with phenol red to which 5% foetal calf serum is added. The T47-D cells are cultivated in RPMI to which 10% foetal calf serum is added. The experimental tests are carried out in DMEM without phenol red to which foetal calf serum treated with dextran carbon is added at 3%. […] The experiments using the different retinoids are carried out sheltered from the light so as to avoid any isomerisation.
Certain properties of the retinoids have been determined using more developed cellular models. These models consist of cellular lineages transfected in a stable fashion by recombinant plasmids which place the expression of the gene of the luciferase under the control of different nuclear response elements. […] The tests carried out in duplicate are described below for each of these models.
The cellular lineages HRLN and HRL+N allow one to study the activation of an RARE by endogenic receptors using ligands at physiological concentrations. These lineages derive from HeLa cells transfected in a stable fashion by a reporter gene which places the expression of the gene of the luciferase under the control of a nuclear response element RARE (RARE3 -tk-Luc). The HeLa cells express all the known receptors of the retinoic acid (RARα,β,γ and RXRα,β,γ) with a predominance of RARα and RXRα. The response element RARE used for the HRLN cells corresponds to the sequence of the natural gene of the RARβ receptor (GGTTCAnnnnnAGTTCA). The HRL+N cells comprise the sequence GAGTGAnnnnnCGGTGA.
This lineage comprises the response element RARE of the natural gene of the RARβ receptor which controls the expression of the gene of the luciferase.

Experiment [4] has as its system A-427 human pulmonary cancer cells. Kind of experiment: MTT test, proliferation of A-427. To be noted: for activity at 100 µM / activity at 0.01 µM / activity at 1 µM: Homo sapiens, A-427, 72 h, read-out: level of proliferation; for effect on cellular increase, A-427 (in words): MTT test.
For experiment [5], the system named is Gal4-RAR (RARα, RARβ, RARγ). Nature of the experiment: Chimerical receptors Gal4-RAR, overall profile. Type of experiment: cell-based.
In the next experiment the test system is Gal4-RARβ. Kind of experiment: Transactivation, chimerical receptor Gal4-RARβ (transitory transfection of HeLa). In kind it is cell-based. The conditions noted are these: 100% = TTNPB 10^-8 M.
The test system of the next experiment is Gal4-RARα. Nature of the experiment: Transactivation, chimerical receptor Gal4-RARα (transitory transfection of HeLa). Type of experiment: cell-based. To be noted: 100% = TTNPB 10^-8 M.
[6] abbreviates: A549, 10^-4 M, 72 h, control = 100%.
The mark [7] stands for this setting: A549, 10^-6 M, 72 h, control = 100%.
The mark [8] stands for this setting: A549, 10^-8 M, 72 h, control = 100%.

Like-named read-outs stand apart in the source and are kept apart here.

Regarding `CC(C=C/C=C(C)\C=C\C1=C(C)CCCC1(C)C)=CC(=O)O` [CB13407, 9-cis retinoic acid, reference compound], the activity at 100 µM in [1] (T-47D, 10^-4 M, control = 100%) was 16.3%; in [2] (A549, 72 h) it was 38%; in experiment [4], 5.9%. The activity at 1 µM was 91.7% in [1] (T-47D, 10^-6 M, control = 100%) and 102% in experiment [2] (A549, 72 h). Moreover, the activity at 0.01 µM in [1] (T-47D, 10^-8 M, control = 100%) came out at 122%; in [2] (A549, 72 h), 104%. For the same molecule, the “effect on cellular increase, T-47D (in words)” value in experiment [1] was “stimulates the cellular increase at 10^-6 M and 10^-8 M”. For the same molecule, the “RAR-ERcassette RARγ transactivation” value with RARγ-ERcassette (10^-6 M) was determined as 157%; in the experiment with RARγ-ERcassette (10^-7 M) it was 108%; with RARγ-ERcassette (10^-8 M) it was 56%; in the experiment with RARγ-ERcassette (10^-9 M) it was 11%. Besides, the “RAR-ERcassette RARα transactivation” value in the experiment on RARα-ERcassette (10^-6 M) is reported as 348%; with RARα-ERcassette (10^-7 M), 187%; in the experiment on RARα-ERcassette (10^-8 M) it was 60%; in the experiment with RARα-ERcassette (10^-9 M), 7%. Also, the “HRLN transactivation (in words)” value in [3] was “induce a dose-dependent activation”.
As for `C/C(=C/c1ccc2c(c1)C(C)(C)CCC2(C)C)c1ccc(C(=O)O)nc1` [CB16279, (Z) 5-[1-(5,6,7,8-tetrahydro-5,5,8,8-tetramethyl-2-naphthalenyl)-2-propenyl]pyridinyl-2-carboxylic acid], the entries for the “RAR-ERcassette RARγ transactivation” value in the experiment on RARγ-ERcassette (10^-6 M) and with RARγ-ERcassette (10^-7 M) were 71% and 15%, respectively. Moreover, the “RAR-ERcassette RARα transactivation” value with RARα-ERcassette (10^-6 M) was found to be 60%; with RARα-ERcassette (10^-7 M), 6%. Moreover, in [5], the “Gal-RAR agonist profile (in words)” value is recorded as “partial agonists at 1 μM for the three RAR receptors”. Also, the “HRLN transactivation (in words)” value in experiment [3] is given as “induce a transactivation close to that of TTNPB”. In the experiment on Gal4-RARβ (10^-6 M), the “GAL4-RAR RARβ transactivation” value is reported as 47%. For the same molecule, the “GAL4-RAR RARα transactivation” value with Gal4-RARα (10^-6 M) stood at 33%.
As a reminder, the EC50 is the concentration that produces a half-maximal response. As to `C/C(=C\c1cc2c(cc1C)C(C)(C)CCC2(C)C)c1ccc(C(=O)O)cc1` [CB71802], the activity at 100 µM in experiment [1] (T-47D, 10^-4 M, control = 100%) was found to be 14.3%; in experiment [2] (setting [6]), 12.5%; in experiment [4], 1%. Also, the activity at 1 µM in experiment [1] (T-47D, 10^-6 M, control = 100%) worked out at 113%; in experiment [2] (setting [7]), 86.3%; in experiment [4] it was 65.6%. Also, the activity at 0.01 µM in [1] (T-47D, 10^-8 M, control = 100%) worked out at 132%; in experiment [2] (setting [8]), 80.9%; in experiment [4] it was 69.7%. The “effect on cellular increase, A549 (in words)” value in experiment [2] was “inhibits the increase of these two pulmonary lineages the most strongly”. This molecule gave an EC50 in experiment [3] of 31.4 ± 16.9 nM. The Emax in experiment [3] stood at 76%. The “effect on cellular increase, A-427 (in words)” value in experiment [4] is given as “inhibits the increase of these two pulmonary lineages the most strongly”.
As to `C/C(=C\c1ccc2c(c1)C(C)(C)CCC2(C)C)c1ccc(C(=O)Nc2nnn[nH]2)cc1` [CB73364], the activity at 100 µM was determined as 0% in [1] (T-47D, 10^-4 M, control = 100%); 0% in experiment [2] (setting [6]); 0.1% in [4]. In addition, the activity at 1 µM was 53% in experiment [1] (T-47D, 10^-6 M, control = 100%); 151% in [2] (setting [7]); 87.2% in [4]. The activity at 0.01 µM worked out at 62% in [1] (T-47D, 10^-8 M, control = 100%); 156% in [2] (setting [8]); 92.7% in experiment [4]. For the same molecule, the “effect on cellular increase, T-47D (in words)” value in [1] is “inhibits the increase of the T-47D cells”. In addition, in the experiment on RARγ-ERcassette (10^-6 M), the “RAR-ERcassette RARγ transactivation” value is 78%. Further, in the experiment on RARα-ERcassette (10^-6 M), the “RAR-ERcassette RARα transactivation” value was 74%. Besides, the “effect on cellular increase, A549 (in words)” value in [2] is “a stimulation of the cellular increase”. In experiment [3], a half-maximal effect (EC50) was put at 33 nM. Also, in experiment [3], the Emax came out at 89%.
On to `Cc1cc2c(cc1C(=O)c1ccc(C(=O)O)cc1)C(C)(C)CCC2(C)C` [LGD-CB14499, reference compound], for which, in experiment [1], the activity at 0.01 µM came out at 88.2%. In [1], the activity at 1 µM was 82.7%. In addition, in experiment [1], the activity at 100 µM amounted to 1.3%. Further, the “RAR-ERcassette RARγ transactivation” value in the experiment with RARγ-ERcassette (10^-6 M) was 66%; with RARγ-ERcassette (10^-7 M), 31%; in the experiment with RARγ-ERcassette (10^-8 M), 13%. Moreover, the figures for the “RAR-ERcassette RARα transactivation” value in the experiment with RARα-ERcassette (10^-6 M), in the experiment on RARα-ERcassette (10^-7 M) and with RARα-ERcassette (10^-8 M) were 42%, 12% and 4%, respectively. Also, the “GAL4-RAR RARβ transactivation” value in the experiment on Gal4-RARβ (10^-6 M) is reported as 9%; in the experiment on Gal4-RARβ (10^-7 M), 1%; with Gal4-RARβ (10^-8 M), 0%. Also, the “GAL4-RAR RARα transactivation” value with Gal4-RARα (10^-6 M) was 17%; in the experiment with Gal4-RARα (10^-7 M) it was 4%; in the experiment with Gal4-RARα (10^-8 M), 1%.
Regarding `C/C(=C\c1ccc(C(=O)O)cc1)c1ccc2c(c1)C(C)(C)CCC2(C)C` [TTNPB, reference compound], the activity at 100 µM in [1] (T-47D, 10^-4 M, control = 100%) worked out at 3.5%. The activity at 1 µM in experiment [1] (T-47D, 10^-6 M, control = 100%) is 61.7%. In [1] (T-47D, 10^-8 M, control = 100%), the activity at 0.01 µM was determined as 58.5%. In addition, the “effect on cellular increase, T-47D (in words)” value in experiment [1] is reported as “inhibit the cellular increase of the two mammary lineages at the concentrations tested”. The “RAR-ERcassette RARγ transactivation” value in the experiment with RARγ-ERcassette (10^-9 M) was determined as 66%. In addition, the “Gal-RAR agonist profile (in words)” value in experiment [5] was “good RAR agonists”. Moreover, in experiment [4], the activity at 0.01 µM amounted to 78.9%; the activity at 1 µM is 78.5%; the activity at 100 µM was determined as 3.6%; the “effect on cellular increase, A-427 (in words)” value was “inhibits the A-427 lineage at 10^-6 M and 10^-8 M”.

These data come from patent US6265423A, “Aromatic polycyclic retinoid-type derivatives, method for preparing same, and use thereof for making pharmaceutical and cosmetic compositions” (priority 1996, dated 2001).
